Reference: patent US20240238243A1, “METHODS AND COMPOSITIONS FOR TREATMENT OF HEART FAILURE WITH PRESERVED EJECTION FRACTION” (Northwestern University, priority 2023, published 2024)

Columns and labels:
[1] = tested on: C57BL/6J mice treated with HFD_L-NAME; test: HFD_L-NAME HFpEF mouse model: echocardiography, heart weight, treadmill exercise test; type: in vivo
Source text: HKΔE1HK1/Δ^E1HK1 (ΔE1HK1) and HK1^WT/WT wild-type (WT) control mice were generated by the Northwestern Mutagenesis and Transgenic core (De Jesus et al., 2022). Briefly, guide RNAs (gRNAs) were designed to induce a double-strand break (DSB) near the 5′ ATG start codon of HK1 in exon 1, and a DNA template containing an M-DYKDDDDK (Methionine-FLAG-tag) sequence with flanking homology arms to the HK1 gene near exon 1 was introduced into fertilized zygotes and implanted into surrogate mice. […] Mouse's genetic background is C57BL/6J. Tie2-Tet-OGA mice are generous gifts from Dr. Dillmann and Dr. Makino (Makino etal., 2015). Mice were maintained in the barrier facility at Northwestern University under specific pathogen-free conditions under the Federal and University guidelines and protocols approved by Institutional Animal Care and Use Committee (IACUC) with 12 hr light and 12 hr dark cycles and received normal chow (NC). Male and female ΔE1HK1 mice were used at 8-40 weeks of age. 8-week-old ΔE1HK1 male mice were fed HFD consisting of 60% fat, 20% protein, and 20% carbohydrates for 20 weeks. To produce the HFpEF mice model, C57BL/6J and Tie2-Tet-OGA mice were fed HFD and 0.5 g/L ofN.-Nitro-L-arginine methyl ester (LNAME, Sigma-Aldrich) for 8-15 weeks. For the induction of OGA overexpression, 0.5 g/L of DOX in drinking water was administered to Tie2-Tet-OGA mice until they were sacrificed. All animal studies were approved by the IACUC at Northwestern University and were performed in accordance with guidelines from the National Institutes of Health.
Mice were anesthetized using isoflurane via a nasal cone, the chest was shaved, and the temperature of the mice was maintained at 37° C. The heart rate was continually monitored. Transthoracic echocardiography was performed using a VisualSonics Vevo 2100 system equipped with an MS400 transducer (FUJIFILM). LVEF and other indices of systolic function and thickness of LV walls were obtained from short-axis M-mode scans at the midventricular level, as indicated by the presence of papillary muscles. Apical four-chamber views were obtained for diastolic function measurements using pulsed-wave and tissue doppler imaging at the level of the mitral valve. During echocardiogram acquisition, isoflurane was maintained in 1.0-1.5% to maintain a heart rate in the range of 400-450 beats per min. All parameters were measured at least three times, and means are presented.
The exercise exhaustion test was performed as previously described (Schiattarella et al., 2019). After three days of acclimatization to treadmill exercise, an exhaustion test was performed in the experimental groups of mice. Mice ran uphill (20°) on the treadmill (Columbus Instruments) starting at a warm-up speed of 5 m/min for 3 min after which speed was increased to 14 m/min for 2 min. Every subsequent 2 min, the speed was increased by 2 m/min until the mouse was exhausted. Exhaustion was defined as the inability of the mouse to return to running within 10 s of direct contact with an electric-stimulus grid. Running time was measured and running distance calculated.

protein O-GlcNAcylation = test: Immunoblot of protein O-GlcNAcylation after intraperitoneal 5S-GlcNHex; type: in vivo, mouse
Protocol: Protein extracts from frozen mouse hearts, isolated cardiomyocytes, fibroblasts, endothelial cells, and HUVECs were prepared by lysis in ice-cold RIPA buffer (150 mM NaCl, 25 mM Tris-HCl pH 7.4, 1% NP-40, 1% sodium deoxycholate, 0.1% SDS) containing protease inhibitors. For analyses of O-GlcNAcylation, 200 μg/ml of PUGNAC (Sigma-Aldrich) was added to the RIPA buffer. Proteins were separated by sodium dodecyl sulfate-polyacrylamide gel electrophoresis (SDS-PAGE) on 8 or 10% polyacrylamide gels and transferred to nitrocellulose membranes. Membranes were incubated with the following primary antibodies overnight, before the addition of HRP-conjugated secondary antibodies: HK1 (2024, Cell Signaling Technology); HK2 (2867, Cell Signaling Technology); GAPDH (60004-1-Ig, Proteintech); FLAG (F1804, Sigma-Aldrich); alpha-tubulin (66031-1-Ig, Proteintech); ATP synthase C (ab181243, Abcam); Phospho-AMPKα (Thr172) (4188, Cell Signaling Technology); AMPKα (2603, Cell Signaling Technology); GFPT1 (14132-1-Ig, Proteintech); RPN1 (12894-1-AP, Proteintech); RPN2 (10576-1-AP, Proteintech); DDOST (14916-1-AP, Proteintech); GFP (66002-1-Ig, Proteintech), O-Linked N-Acetylglucosamine (ab2739, Abcam); OGT (11576-2-AP, Proteintech); OGA (66033-1-Ig, Proteintech). The presence of target protein was visualized using Super Surgical Western Pico ECL substrate (Pierce). Quantification of the western blotting images was done using ImageJ (NIH).

OGT = target: T1, OGT (Mus musculus, UniProt Q8CGY8); details: Liu et al., 2018; cited from earlier work
T1 sequence (Q8CGY8 2-1046 limits assumed): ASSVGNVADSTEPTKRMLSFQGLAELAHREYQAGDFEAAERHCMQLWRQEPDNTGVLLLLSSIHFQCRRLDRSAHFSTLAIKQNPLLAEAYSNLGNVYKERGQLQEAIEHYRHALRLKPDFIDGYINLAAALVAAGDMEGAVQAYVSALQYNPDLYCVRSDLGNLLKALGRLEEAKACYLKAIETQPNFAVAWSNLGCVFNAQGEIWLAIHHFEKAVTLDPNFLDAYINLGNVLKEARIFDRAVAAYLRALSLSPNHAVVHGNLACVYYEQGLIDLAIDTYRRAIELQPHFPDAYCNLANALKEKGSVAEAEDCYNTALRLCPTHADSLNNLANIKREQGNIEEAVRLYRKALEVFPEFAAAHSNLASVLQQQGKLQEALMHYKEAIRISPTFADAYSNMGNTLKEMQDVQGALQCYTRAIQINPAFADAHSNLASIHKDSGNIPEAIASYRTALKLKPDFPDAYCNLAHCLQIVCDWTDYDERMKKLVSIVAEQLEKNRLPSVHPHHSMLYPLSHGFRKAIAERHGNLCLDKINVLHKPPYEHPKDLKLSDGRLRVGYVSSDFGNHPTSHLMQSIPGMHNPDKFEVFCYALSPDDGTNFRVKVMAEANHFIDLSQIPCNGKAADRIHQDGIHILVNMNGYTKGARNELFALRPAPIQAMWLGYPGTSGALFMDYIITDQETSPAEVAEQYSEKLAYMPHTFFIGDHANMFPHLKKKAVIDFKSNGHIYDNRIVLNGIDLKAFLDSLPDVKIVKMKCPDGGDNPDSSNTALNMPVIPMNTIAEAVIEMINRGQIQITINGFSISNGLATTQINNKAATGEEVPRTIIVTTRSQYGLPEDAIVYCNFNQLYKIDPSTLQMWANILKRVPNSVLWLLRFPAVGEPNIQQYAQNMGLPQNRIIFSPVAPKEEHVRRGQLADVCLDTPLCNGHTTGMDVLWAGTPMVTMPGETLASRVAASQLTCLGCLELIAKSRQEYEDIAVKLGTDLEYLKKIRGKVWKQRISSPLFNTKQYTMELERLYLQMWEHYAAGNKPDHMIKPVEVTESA

ECs from ΔE1HK1 mice = test: Tube formation assay in isolated ECs from ΔE1HK1 mice treated with ST045849; type: cell-based, mouse; details: 20 μM, FIGS. 7H and 7I
Protocol: Endothelial cells (ECs) were isolated from mouse hearts as previously described (Luo et al., 2016; van Beijnum et al., 2008). Briefly, dissected mouse heart was minced and incubated with PBS containing 2% fetal bovine serum (FBS), 1 mg/ml collagenase II (Worthington), and 0.6 U/ml dispase II (Sigma-Aldrich) for 30 mins at 37° C. 7.5 μg/ml of DNase I (Sigma-Aldrich) was added to the digested hearts and additional incubation for 30 minutes was performed. The digested material was filtered through 40 μm cell strainer, then incubated with biotinylated anti-CD45 antibody (Invitrogen) and depleted of CD45 positive cells using EasySep Mouse Streptavidin (STEMCELL technologies) as described in the manufacture's protocol. […]
The formation of tube networks was assessed as described before (Das et al., 2018). […] Following an 18 hour-incubation, tube networks from each biological replicate were analyzed in at least three random fields by light microscopy. The number of branch points (junctions), segments and meshes, and total length of tubule networks (total length of branching) were quantified by Fiji software (Angiogenesis Analyzer).

HUVECs = test: Tube formation assay in HUVECs treated with tunicamycin; type: cell-based, human; details: HUVECs, 0, 30, 50, and 100 nM, FIG. 6P
Protocol: The formation of tube networks was assessed as described before (Das et al., 2018). HUVECs and isolated ECs were seeded at 20,000 and 45,000cells per well in a 96-well plate coated with […] Matrigel (Fisher Scientific) or Cultrex (R & D Systems) reduced growth factor basement membrane matrix. The cells were treated with EGM-2 medium containing tunicamycin (Sigma-Aldrich) or ST045849 (Sigma-Aldrich) wherever mentioned. Following an 18 hour-incubation, tube networks from each biological replicate were analyzed in at least three random fields by light microscopy. The number of branch points (junctions), segments and meshes, and total length of tubule networks (total length of branching) were quantified by Fiji software (Angiogenesis Analyzer).

[2] = tested on: genes related to UPR in HUVEC; test: mRNA levels of genes related to UPR (Xbp1s, Hspa5) in HUVEC treated with tunicamycin; type: cell-based, human; details: FIGS. 6N and 6O
Protocol: RNA was isolated from cells or heart samples using RNA-STAT60 (Tel-Test), and reverse transcribed with Taqman Reverse Transcription Reagents (Invitrogen) according to manufacturers' instructions. Quantification of relative gene expression was done using Fast SYBR Green Master Mix (Applied Biosystems) and run on 7500 Fast Real-Time PCR system (Applied Biosystems). The relative gene expression was determined using differences in Ct values between the gene of interest and house-keeping control genes, which are Actb, Hprt1, and/or 18S, depending on the experiment.

[3] = tested on: protein N-glycosylation in HUVEC; test: Lectin blot with ConA-HRP of HUVEC treated with tunicamycin (dose-curve); type: cell-based, human; details: preliminary dose-curve experiments, FIG. 6M
Protocol: HUVECs were purchased from Lonza and grown in EGM2 media (Lonza). HEK293T cells were purchased from ATCC and cultured in DMEM (Corning) with 10% FBS (Bio-Techne Sales Corp.). All cells were maintained in a 37° C. incubator with 5% CO2 and were 70% to 90% confluent when collected for analyses.
Nitrocellulose membranes with blotted proteins were blocked with PBS containing 2% Tween 20 for 2 minutes at room temperature. They were rinsed with PBS twice, then incubated with 1 μg/ml of ConA-HRP (Sigma-Aldrich) in PBS containing 0.05% Tween 20, 1 mM CaCl2), 1 mM MnCl2, and 1 mM MgCl2 for 16 hours at room temperature avoiding exposure to the light. The presence of proteins conjugated with the lectin was visualized using Super Surgical Western Pico ECL substrate (Pierce). Quantification of the images was done using ImageJ (NIH).

[4] = 30 mg/kg every 48 hours for 10 weeks following 5 weeks of HFD_L-NAME
[5] = 50 mg/kg for 3 weeks following 5 weeks of HFD_L-NAME
[6] = 20 and 30 mg/kg every 48 hours for 10 weeks following 5 weeks of HFD_L-NAME
[7] = isolated ECs, intraperitoneal, dose dependency study, FIG. 9A
[8] = single intraperitoneal injection of 50 mg/kg, FIG. 9M

CCCCCC(=O)N[C@H]1C(O)S[C@H](CO)[C@@H](O)[C@@H]1O (stereo partly drawn) [5S-GlcNHex, 2-deoxy-2-N-hexanamide-5-thio-D-glucopyranoside]
increased E/A ratio ([1]; 20 mg/kg every 48 hours for 10 weeks following 5 weeks of HFD_L-NAME): reversed | exercise capacity (treadmill test) [1, 4]: significant improvement | increased E/A ratio [1, 4]: reversed | EF [1, 5]: no discernable effects | cardiac hypertrophy as indicated by PWTd [1, 5]: ameliorated | cardiac hypertrophy as indicated by heart weights [1, 5]: ameliorated | decreased e' [1, 5]: substantially restored | increased E/A [1, 5]: substantially restored | increased E/e' [1, 5]: substantially restored | increased LA area [1, 5]: substantially restored | HFpEF phenotype ([1]; 50 mg/kg, FIGS. 9M-9X): reverses the HFpEF phenotype | EF [1, 6]: no significant changes | LV diameter in systole (LVDs) [1, 6]: no significant changes | LVDd [1, 6]: no significant changes | fraction shortening (FS) [1, 6]: no significant changes | increased LA sizes [1, 6]: tendency to decrease | increased heart weights [1, 6]: tendency to decrease | HFpEF phenotype ([1]; summary statement): reversal of the HFpEF phenotype | dose at which reduction of protein O-GlcNAcylation reached a plateau (protein O-GlcNAcylation; [7]): 30 mg/kg | dose that initiated the reduction of protein O-GlcNAcylation (protein O-GlcNAcylation; [7]): 20 mg/kg | protein O-GlcNAcylation in various organs (protein O-GlcNAcylation; single intraperitoneal injection of 50 mg/kg, C57BL6/J mice): effectively curtailed | time after which protein O-GlcNAcylation returns to baseline (protein O-GlcNAcylation; [8]): 72 h | time over which protein O-GlcNAcylation is reduced (protein O-GlcNAcylation; [8]): 48 h | protein O-GlcNAcylation in ECs in vivo (protein O-GlcNAcylation; summary statement): successfully reduces | in vivo efficacy among OGT inhibitors (OGT): significant in vivo efficacy

O=C(O)C1CC(=O)N(CCC23CC4CC(CC(C4)C2)C3)C(=Nc2ccc(Cl)cc2)S1 (stereo not shown) [ST045849]
tube formation: number of junctions (ECs from ΔE1HK1 mice): significant enhancement | tube formation: total length of branching (ECs from ΔE1HK1 mice): significant enhancement

tunicamycin
tube formation (number of junctions, total length of branching) (HUVECs): no significant effects | mRNA levels of genes related to UPR [2]: acted in the same manner as observed in N-glycosylation experiments | concentration at which reduced protein N-glycosylation was confirmed [3]: 20 nM | concentration at which reduction of protein N-glycosylation reaches plateau [3]: 50 nM
